Measurements reported in patent US20170266319A1, “METHODS AND COMPOSITIONS FOR TREATING CONDITIONS ASSOCIATED WITH SPINAL CORD INJURY” (priority 2016, published 2017).
Entries after “also recorded” stand apart in the source; their conditions may differ.

What was measured:
Type in all cases: in vivo
[1] = system: hM4Di-expressing Vglut2+ spinal interneurons; test: Colorectal distension (CRD) and c-Fos analyses after chemogenetic silencing; conditions: T3 SCI Vglut2-Cre mice injected with AAV-hSyn-DIO-hM4Di-mCherry; CNO 1.0 mg/kg i.p. 30 min before CRD, day 28 post-injury, vs vehicle
Experimental: Colorectal distension was induced as previously reported3, 12, 13 with minor modification. A 4-French, 60 mm balloon-tipped catheter (Swan-Ganz monitoring catheter model 116F4; Edwards Life Sciences) was inserted 1.5 cm into the rectum before securing the catheter to the tail with surgical tape. The balloon was inflated with 0.2 ml of air for 30 sec then deflated 60 sec. This 90 sec cycle was repeated for 90 min. Mice were perfused 30 min after the final cycle of inflation. The number of c-Fos^+ cells were counted and analyzed in 2 representative horizontal spinal cord sections at T4-9 level from multiple SCI animals with or without CRD stimulation. The number of animals analyzed were: uninjured with or without CRD, n=3/group; T3 SCI (day 28) without CRD, n=3; T3 SCI (day 28) with CRD, n=5; Vglut2-Cre; cc-EGFP+T3 SCI (day 28) with CRD, n=3; Chat-Cre; cc-EGFP+T3 SCI (day 28) with CRD, n=3 (FIG. 7). To evaluate the effects of DREADD in mice with CRD-induced activation of visceral-sympathetic reflex, CNO (1.0 mg/kg body weight, i.p.; Sigma) or vehicle saline was injected into Vglut2-Cre+T3SCI+AAV8-hSyn-DIO-hM4D(Gi)-mCherry mice at day 28 post-injury, 30 min before the induction of CRD (n=3 each) (FIG. 9).

[2] = system: Vglut2+ spinal interneurons expressing hM4Di DREADD; test: DREADD experiment: T3 SCI immune suppression, Vglut2-Cre mice; conditions: T3 SCI Vglut2-Cre mice with AAV8-hSyn-DIO-hM4D(Gi)-mCherry; CNO 1 mg/kg 2x/day, day 14-27 post-injury; day 28
Experimental: (§1) AAV8-hSyn-DIO-hM4Di-mCherry (AAV8-hSyn-DIO-hM4D(Gi)-mCherry; 7×10^12 vg/ml; UNC Vector Core) was injected into T5 and 7 levels of the spinal cord of Vglut2-Cre, Chat-Cre, or WT mice at P14 (0.8 μl/site, 0.25 mm lateral, 0.5 mm in depth). […] T3 SCI was induced at 8 weeks old, and then CNO (1.0 mg/kg body weight, i.p.; Sigma) was injected twice per day from day 14 to 27 post-injury (FIG. 3b). Small cohorts of mice from each colony were used as they reached the appropriate age for experimentation. […]
(§2) Spleens were harvested in Flow Cytometry Staining Buffer (eBioscience) and cell suspensions were made by expressing spleen tissue through a cell strainer using the plunger of a 10 ml syringe. […] Splenocytes were counted on a hemocytometer and 5×10^5 cells were incubated with Fc-block (anti-mouse-CD16/CD32 antibody; eBioscience). […] Splenocytes (10,000 events/sample) were analyzed using a FACSCanto flow cytometer with FACSDiva software (BD Biosciences). […] The number of each subset was calculated as the percentage of labeled cells multiplied by the total number of splenocytes.

[3] = system: Chat+ spinal interneurons expressing hM4Di DREADD; test: DREADD experiment: T3 SCI immune suppression, Chat-Cre mice; conditions: T3 SCI Chat-Cre mice with AAV8-hSyn-DIO-hM4D(Gi)-mCherry; CNO 1 mg/kg 2x/day, day 14-27 post-injury
Experimental: as §1, §2

C[N+]1([O-])CCN(C2=Nc3cc(Cl)ccc3Nc3ccccc32)CC1 [CNO, clozapine-N-oxide] was tested, and the “c-Fos expression elicited by colorectal distension (silencing of hM4DGi+ spinal neurons)” value [1] was “reduces c-Fos expression; also recorded: significant silencing”, the Splenic atrophy [2] was “reversed” and the “Total numbers of splenocytes, including CD4+ and CD8+ T cells and B220+ B cells” value [2] was “restored to pre-injury levels”. For the same compound, the Immune protection [3] was “modest non-significant immune protection”.
